According to patent US11992488B2, “Vasoconstriction compositions and methods of use” (Eye Therapies, LLC, priority 2008, dated 2024):
Read-outs that look alike come from different tables or passages of the source.

How the values were obtained:
[1] = system: patients with chronic red eyes; experiment: Example 5: chronic red eyes, patient satisfaction assessment; format: in vivo, human; settings: eld brimonidine at […], drops twice a day for three to five weeks, seven patients
Experimental: The treatment was through drops twice a day for three to five weeks. At the end, patient satisfaction assessment was conducted.

[2] = system: over-responders; settings: contact lenses soaked in 0.008% brimonidine, of 100 Subjects (over-responders)
Source text: Contact lenses are often provided as daily wear lenses stored in a blisterpack solution.

[3] = system: under-responders; settings: of 100 Subjects (under-responders)
[4] = system: patient with an ocular condition; settings: brimonidine at 0.01% to […] vs tetrahydrozoline 0.05%, oxymetazoline […], naphazoline […]; one patient, baseline redness 4/4
Source text: In an average clinical situation, baseline redness is at 1-1.5/4.

[5] = system: patient with an ocular condition of moderate hyperemia; experiment: FIGS. 5A-C: reversal of pre-induced rebound hyperemia; format: in vivo, human; settings: brimonidine at […], right eye after VISINE Original, FIG. 5C
Source text: FIG. 5A is a baseline visual appearance of two eyes of a patient with an ocular condition.

[6] = FIG. 2
[7] = system: over-responders; settings: of 100 Subjects (over-responders)
[8] = system: over-responders wearing contact lenses; settings: 0.008% brimonidine while wearing contact lenses, of 100 Subjects (over-responders)
Source text: Contact lenses provide a reservoir to the surface of the eye allowing drugs to remain longer on the eye and increase their effectiveness.

[9] = 0.037% brimonidine after wash-out

Brc1c(N=C2NCCN2)ccc2nccnc12.O=C(O)C(O)C(O)C(=O)O [brimonidine, 5-bromo-6-(2-imidazolidinylideneamino) quinoxaline L-tartrate]
patient-reported redness [1]: All patients reported reduced redness
Reduced Redness [2]: 95
Whitening [2]: 95
Reduced Redness [3, 9]: 95
Whitening [3, 9]: 95
Reduced Redness ([3]; […] brimonidine): 35
Whitening ([3]; […] brimonidine): 35
scleral whitening brightening effects [4]: significant scleral whitening brightening effects
reversal of induced rebound hyperemia [5]: reversing the VISINE Original® induced rebound hyperemia
concentration at which intraocular pressure reduction is at its maximum [6]: about 0.09%
Reduced Redness ([7]; […] brimonidine after wash-out): 95
Whitening ([7]; […] brimonidine after wash-out): 95
Reduced Redness ([7]; […] brimonidine): 85
Whitening ([7]; […] brimonidine): 85
Reduced Redness [8]: 95
Whitening [8]: 95
